Drawing on patent US20230321086A1, “METHODS AND MATERIALS FOR INHIBITING NICOTINAMIDE PHOSPHORIBOSYLTRANSFERASE ACTIVITY” (Universiy of Pittsburgh - Of the Commonwealth System of …, priority 2020, published 2023), this text covers IC50 for 27 molecules.

Structures are written as SMILES.

For the test, the target named is NAMPT (Homo sapiens, UniProt P43490). The test can be described thus: Assay for in vitro NAMPT activity via NMN assessment. In kind it is biochemical. Particulars: read-out: A: NAMPT enzyme inhibitory activity, IC50. The protocol: The following were added to a well: 20 μL 2× test compound in Basic Buffer (0.02% BSA, 2 mM DTT, 12 mM MgCl2, 50 mM Tris pH7.5); 10 μL 8 μg/mL NAMPT, and 200 μM PRPP working solution (or PRPP working solution to background wells). 10 μL 100 μM NAM working solution was added to start the reaction. The plate was sealed and incubated for 45 minutes at 37° C. After incubation, 10 μL 20% acetophenone in DMSO, 10 μL 2N KOH, and 20 μL 88% formic acid were added. The plate was sealed and incubated for 30 minutes at 37° C. After incubation, fluorescence at Ex/Em 387/441 was read.
Sequence of NAMPT (P43490 whole entry, species assumed): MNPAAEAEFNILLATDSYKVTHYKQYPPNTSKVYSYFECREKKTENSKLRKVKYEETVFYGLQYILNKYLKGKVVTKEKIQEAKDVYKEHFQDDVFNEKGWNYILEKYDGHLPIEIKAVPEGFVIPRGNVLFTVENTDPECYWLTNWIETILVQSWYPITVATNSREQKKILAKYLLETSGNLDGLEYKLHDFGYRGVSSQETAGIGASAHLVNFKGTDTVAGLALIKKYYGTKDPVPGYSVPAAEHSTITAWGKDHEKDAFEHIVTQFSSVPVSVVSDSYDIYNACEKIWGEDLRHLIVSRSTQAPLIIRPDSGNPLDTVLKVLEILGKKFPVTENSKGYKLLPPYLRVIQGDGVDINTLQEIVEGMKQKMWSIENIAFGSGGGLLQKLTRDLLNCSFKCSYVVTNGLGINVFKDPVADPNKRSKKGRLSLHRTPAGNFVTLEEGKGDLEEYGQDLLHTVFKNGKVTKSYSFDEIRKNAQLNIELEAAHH
In each table header, A: NAMPT enzyme inhibitory activity, IC50 (μM); B: Cellular NAD inhibitory activity, IC50 (μM); and C: change in NAD levels in response to test compound, shown as % of NAD activity in the absence of test compound. […] A percentage of 100 percent would indicate no increase or decrease in NAD levels as compared to that measured for untreated control cells, while a percentage of 50 percent would indicate a decrease in NAD levels of 50 percent as compared to that measured for untreated control cells.
On to `C#CCNC(=O)c1ccc2nc(-c3ccc(F)cc3)c(-c3cccc(CO)c3)nc2c1` [BC20220], for which the half-maximal inhibitory concentration (IC50) was no less than 25 µM.

In the case of `CN1CCN(Cc2cccc(-c3nc4ccc(C(=O)N5CCN(C)CC5)cc4nc3-c3cccc(CN4CCN(C)CC4)c3)c2)CC1` [BC20243], the IC50 is no less than 25 µM.

With `CC(=O)N1CCC[C@H](CNC(=O)Nc2ccc3nc(-c4ccc(F)cc4)c(-c4ccc(F)cc4)nc3c2)C1` [BC20299], the IC50 fell in the range of 1 to 25 µM.

For the molecule `CC(=O)NCc1cccc(-c2nc3ccc(C(=O)N4CCN(C)CC4)cc3nc2-c2ccc(F)cc2)c1` [BC20306], the concentration for half-maximal inhibition (IC50) was no less than 25 µM.

For `O=C(NCCN1CCCC1)c1cnc2nc(-c3ccc(F)cc3)c(-c3ccc(F)cc3)nc2c1` [BC20202], the IC50 was no less than 25 µM.

Regarding `CN1CCN(C(=O)c2ccc3nc(-c4ccc(F)cc4)c(-c4cccc(CN5CCCC5)c4)nc3c2)CC1` [BC20265], the 50% inhibitory concentration (IC50) was no less than 25 µM.

As to `COCC(=O)NCc1cccc(-c2nc3ccc(C(=O)N4CCN(C)CC4)cc3nc2-c2cccc(CNC(=O)COC)c2)c1` [BC20273], the IC50 is no less than 25 µM.

With `C#CCNC(=O)c1ccc2nc(-c3cccc(NS(C)(=O)=O)c3)c(-c3cccc(NS(C)(=O)=O)c3)nc2c1` [BC20288], the IC50 is no less than 25 µM.

With `CC(=O)NCc1cccc(-c2nc3ccc(C(=O)N4CCN(C)CC4)cc3nc2-c2cccc(CNC(C)=O)c2)c1` [BC20272], the IC50 was no less than 25 µM.

Consider `CN(C)CC(=O)Nc1cccc(-c2nc3ccc(C(=O)N4CCN(C)CC4)cc3nc2-c2cccc(NC(=O)CN(C)C)c2)c1` [BC20286], for which the half-inhibitory concentration (IC50) is no less than 25 µM.

Turning to `COCC(=O)Nc1cccc(-c2nc3ccc(C(=O)N4CCN(C)CC4)cc3nc2-c2ccc(F)cc2)c1` [BC20245], the half-maximal inhibitory concentration (IC50) was no less than 25 µM.

For the molecule `CN1CCN(C(=O)c2ccc3nc(-c4cccc(CNS(C)(=O)=O)c4)c(-c4cccc(CNS(C)(=O)=O)c4)nc3c2)CC1` [BC20259], the concentration for half-maximal inhibition (IC50) was no less than 25 µM.

Consider `C#CCNC(=O)c1ccc2nc(-c3cccc(NC(=O)CN(C)C)c3)c(-c3ccc(F)cc3)nc2c1` [BC20266], for which the IC50 was no less than 25 µM.

For the molecule `CC(=O)N1CCCC(NC(=O)Nc2cnc3nc(-c4ccc(F)cc4)c(-c4ccc(F)cc4)nc3c2)C1` (stereo not drawn) [BC20239], the IC50 was no less than 25 µM.

`CS(=O)(=O)N1CCCC(NC(=O)NCc2ccc3nc(-c4ccc(F)cc4)c(-c4ccc(F)cc4)nc3c2)C1` (stereo not drawn) [BC20253]: the concentration for half-maximal inhibition (IC50) is no less than 25 µM.

With `COCC(=O)NCc1cccc(-c2nc3cc(C(=O)N4CCN(C)CC4)ccc3nc2-c2ccc(F)cc2)c1` [BC20264], the half-maximal inhibitory concentration (IC50) was no less than 25 µM.

For `O=C(NCc1cccnc1)c1cnc2nc(-c3ccc(F)cc3)c(-c3ccc(F)cc3)nc2c1` [BC20203], the IC50 is 1 to 25 µM.

For the molecule `CN1CCN(Cc2cccc(-c3nc4cc(C(=O)N5CCN(C)CC5)ccc4nc3-c3ccc(F)cc3)c2)CC1` [BC20232], the IC50 was no less than 25 µM.

`CN(C)Cc1cccc(-c2nc3ccc(C(=O)N4CCN(C)CC4)cc3nc2-c2cccc(CN(C)C)c2)c1` [BC20260]: the concentration for half-maximal inhibition (IC50) is no less than 25 µM.

On to `C#CCNC(=O)c1ccc2nc(-c3ccc(F)cc3)c(-c3cccc(CN(C)C)c3)nc2c1` [BC20233], for which the half-inhibitory concentration (IC50) was no less than 25 µM.

Regarding `Fc1ccc(-c2nc3cc4[nH]c(=S)n(CCc5cccnc5)c4nc3nc2-c2ccc(F)cc2)cc1` [BC20305], the IC50 is no less than 25 µM.

Take `O=C(NCc1ccc2nc(-c3ccc(F)cc3)c(-c3ccc(F)cc3)nc2c1)NC1CCCNC1` (stereo not drawn) [BC20250]: the IC50 was no less than 25 µM.

On to `O=C(Nc1cnc2nc(-c3ccc(F)cc3)c(-c3ccc(F)cc3)nc2c1)NC1CCCNC1` (stereo not drawn) [BC20255], for which the IC50 was no less than 25 µM.

As for `COCCNC(=O)Nc1cnc2nc(-c3ccc(F)cc3)c(-c3ccc(F)cc3)nc2c1` [BC20298], the concentration for half-maximal inhibition (IC50) was no less than 25 µM.

Take `CN1CCCC(NC(=O)NCc2ccc3nc(-c4ccc(F)cc4)c(-c4ccc(F)cc4)nc3c2)C1` (stereo not drawn) [BC20251]: the 50% inhibitory concentration (IC50) is no less than 25 µM.

In the case of `CN1CCN(C(=O)c2ccc3nc(-c4ccc(F)cc4)c(-c4cccc(N(C)C)c4)nc3c2)CC1` [BC20262], the IC50 is no less than 25 µM.

Regarding `O=C1N(Cc2ccncc2)CCCN1c1ccc2nc(-c3ccc(F)cc3)c(-c3ccc(F)cc3)nc2c1` [BC20226], the half-inhibitory concentration (IC50) was 1 to 25 µM.

As a reminder, the IC50 is the point on the concentration scale where inhibition reaches its midpoint.
